According to paper PMC12844998, “Bridging the Knowledge Gap in Harmaline’s Pharmacological Properties: A Focus on Thermodynamics and Kinetics” (Pharmaceutics, 2025):
Several values for one entry are separate records, joined by “and”; a condition that tells them apart may be missing. Equal entries are not always repeated. Entries after “also recorded” stand apart in the source; their conditions may differ. Where two headings read alike, the source gives them in different places.

Key:
[1] = Equilibrium distribution coefficients in organic solvent/pH 7.4 systems, shake-flask method; type: physicochemical; settings: for logD / logD at 24 h: read-out: log DappOctOH/pH7.4 (logD) (converted); for DappHex/pH7.4 ·10^2: value given as D×10^2
Description: The equilibrium distribution coefficients of HML were determined in the OctOH/pH 7.4 and Hex/pH 7.4 systems by the shake-flask method over a wide temperature range of 293.15–313.15 K. The distribution coefficient in the IPM/pH 7.4 system was obtained at 310.15 K. Before the experiment, the aqueous and organic phases were mutually pre-saturated by vigorous shaking for 24 h, equilibrated, and then carefully separated. The stock HML solutions were prepared in OctOH for the OctOH/pH 7.4 system and in pH 7.4 for both the Hex/pH 7.4 and IPM/pH 7.4 systems. The volumes of the organic and aqueous phases were selected according to the HML solubility in each solvent. The glass vials containing the two-phase system were equilibrated at constant temperature for 24 h. After this, the vials were allowed to stand for not less than 4 h, and the phases were carefully separated. The concentration of HML in each phase was measured using a UV-VIS spectrophotometer (Cary-50 Varian, Palo Alto, CA, USA; Software Version 3.00 (339)). Each experiment was carried out in three or more replicates. The standard deviation ranged from 2% to 4% of the mean. The distribution coefficients were calculated by Equation (1):(1) DappOrg/pH7.4=C2Org/pH7.4⋅V^pH7.4/Org/C2pH7.4/Org⋅V^Org/pH7.4 where DappOrg/pH7.4 is the distribution coefficient calculated using the compound concentrations in molar units, C2Org/pH7.4 and C2pH7.4/Org are the molar concentrations of the drug in the mutually saturated organic and aqueous phases, respectively, V^pH7.4/Org and V^Org/pH7.4 are the volumes of the mutually saturated buffer and organic phases, respectively. The ΔlogD parameters that characterize the drug’s hydrogen-bonding potential and reflect the impact of specific interactions on partition processes were calculated as follows:(2) ΔlogD^Oct/Hex=logDappOct/pH7.4−logDappHex/pH7.4 (3) ΔlogD^IPM/Hex=logDappIPM/pH7.4−logDappHex/pH7.4

[2] = Kinetics of distribution in OctOH/pH 7.4 and IPM/pH 7.4 (1-5 h); type: physicochemical
Description: Distribution coefficients were measured at 1, 2, 3, 4, and 5 h in OctOH/pH 7.4 and IPM/pH 7.4 at 310.15 K to assess the kinetics of HML distribution.

[3] = Permeability in Franz diffusion cell, PermeaPad barrier; type: in vitro ADME
Description: Permeability coefficients were measured in a vertical type Franz diffusion cell (PermeGear, Inc., Hellertown, PA, USA) maintained at 37 °C, with an effective diffusion area of 0.785 cm^2. The volumes of the donor (lower) and the acceptor (upper) compartments were 7 mL and 2 mL, respectively. Three artificial membranes were used in the study: Regenerated cellulose (RC): Standard Grade RC Dialysis Membrane with a molecular weight cut-off (MWCO) of 12–14 kDa and a flat width of 45 mm; PermeaPad barrier (PP): A commercially available barrier (PHABIOC, Fritz-Souchon-Str. 27, 32339 Espelkamp, Germany; www.innome.de), originally proposed by di Cagno et al.; Polydimethylsiloxane-polycarbonate membrane (PDS): A “Carbosil” membrane composed of 55% polydimethylsiloxane and 45% polycarbonate (PENTAMED, Moscow, Russia; https://medpolymer.ru/).
A solution of HML in pH 7.4 (7 mL) was placed into the donor chamber of a Franz cell. The acceptor compartment was filled with pure buffer pH 7.4 (1 mL). Over a period of 5 h, 0.5 mL samples were withdrawn from the acceptor compartment at 30 min intervals and replaced with an equal volume of fresh pH 7.4 buffer. The sample concentrations were determined by UV-Vis spectroscopy (Cary-50, Varian, Palo Alto, CA, USA; Software Version 3.00 (339)) or by HPLC (for experiments involving the polydimethylsiloxane-polycarbonate membrane). The cumulative amount of drug permeated through the membrane was plotted as a function of time. The flux was determined from the slope of the linear portion of each curve. The permeability coefficient was calculated using the following equation:(4) Papp=J/C0 where J is the flux, and C0 is the concentration of HML in the donor solution. A reverse dialysis setup was employed, where the lower chamber served as the donor compartment and was filled with the drug solution. Sink conditions were maintained in all experiments, meaning the drug concentration in the acceptor compartment never exceeded 10% of its concentration in the donor compartment at any time according the recommendations proposed in [18].

[4] = Dissolution thermodynamics from van't Hoff plots of solubility; type: physicochemical
Description: (§1) The calculation of the thermodynamic parameters for the solubility and distribution processes was based on component concentrations expressed in terms of mole fractions. The standard calculation procedure and the respective equations are presented in the Supplementary Materials (Section S4).

[5] = Transfer thermodynamics from van't Hoff plots of distribution coefficients; type: physicochemical; settings: 298.15 K
Description: as §1

With `COc1ccc2c3c([nH]c2c1)C(C)=NCC3` [HML, Harmaline] the logD ([1]; 1-octanol (OctOH)/buffer pH 7.4, pH 7.4, OctOH/pH 7.4, 310.15 K) was 1.29, the logD ([1]; 1-octanol (OctOH)/buffer pH 7.4, pH 7.4, OctOH/pH 7.4, 313.15 K) was 1.34 and the “decrease of distribution coefficient from OctOH/pH 7.4 to IPM/pH 7.4 system” value ([1]; 310.15 K) was 78 fold. The “DappHex/pH7.4 ·10^2” value ([1]; Hex/pH 7.4, 293.15 K) was 1.178 ± 0.024, the “DappHex/pH7.4 ·10^2” value ([1]; Hex/pH 7.4, 303.15 K) was 1.470 ± 0.037 and the “DappHex/pH7.4 ·10^2” value ([1]; Hex/pH 7.4, 308.15 K) was 1.718 ± 0.035. The DappHex/pH7.4 ([1]; Hex/pH 7.4, 310.15 K, unscaled value in text) was 0.022, the “DappHex/pH7.4 ·10^2” value ([1]; Hex/pH 7.4, 310.15 K) was 2.197 ± 0.044 and the “DappHex/pH7.4 ·10^2” value ([1]; Hex/pH 7.4, 313.15 K) was 2.483 ± 0.050. For the same compound, the DappIPM/pH7.4 ([1]; IPM/pH 7.4, 310.15 K) was 0.25 and 0.250 ± 0.010, the logD at 24 h ([1]; OctOH (octanol)/buffer pH 7.4, pH 7.4, OctOH/pH 7.4, 293.15 K) was 0.973 and the logD at 24 h ([1]; OctOH (octanol)/buffer pH 7.4, pH 7.4, OctOH/pH 7.4, 298.15 K) was 1.02. For the same compound, the logD at 24 h ([1]; OctOH (octanol)/buffer pH 7.4, pH 7.4, OctOH/pH 7.4, 303.15 K) was 1.07, the logD at 24 h ([1]; OctOH (octanol)/buffer pH 7.4, pH 7.4, OctOH/pH 7.4, 308.15 K) was 1.17 and the DappOctOH/pH7.4 ([1]; OctOH/pH 7.4, 293.15 K) was 9.399 ± 0.101. The DappOctOH/pH7.4 ([1]; OctOH/pH 7.4, 298.15 K) was 10.376 ± 0.208, the DappOctOH/pH7.4 ([1]; OctOH/pH 7.4, 303.15 K) was 11.653 ± 0.233 and the DappOctOH/pH7.4 ([1]; OctOH/pH 7.4, 308.15 K) was 14.632 ± 0.293. For the same compound, the DappOctOH/pH7.4 ([1]; OctOH/pH 7.4, 310.15 K) was 19.492 and 19.49 and 19.492 ± 0.389, the DappOctOH/pH7.4 ([1]; OctOH/pH 7.4, 313.15 K) was 22.138 ± 0.443 and the “fold-change between saturation and 5 h distribution coefficients” value ([2]; IPM/pH 7.4, 310.15 K) was 1.36 fold. The “increase of distribution from 1 to 5 h” value ([2]; IPM/pH 7.4, 310.15 K) was 1.3 fold, the “fold-change between saturation and 5 h distribution coefficients” value ([2]; OctOH/pH 7.4, 310.15 K) was 1.38 fold and the “increase of distribution from 1 to 5 h” value ([2]; OctOH/pH 7.4, 310.15 K) was 1.2 fold. For the same compound, the logPapp ([3]; PP barrier, pH 7.4, 310.15 K) was −4.43, the “steady state flux J” value ([3]; PP barrier, pH 7.4, 310.15 K, C0 2.23 × 10^−3 M) was 8.28 × 10^−5 µmol∙cm^−2∙s^−1 and the Papp at 5 h ([3]; PP barrier, pH 7.4, 310.15 K, read-out: permeability coefficient Papp) was 37.1 ×10⁻⁶ cm/s. For the same compound, the “permeability classification (Di Cagno et al.)” value ([3]; PP barrier, high permeability if Papp > 2.04∙10^−5 cm∙s^−1) was “highly permeable; also recorded: high permeated substance”, the “permeability coefficient for PP, fold lower than for RC” value ([3]; pH 7.4, 310.15 K) was 1.3 fold and the “Gibbs energy of solution ΔGsol0” value ([4]; Hex, 298.15 K) was 28.6 kJ/mol. For the same compound, the “enthalpy share of the total free energy change of dissolution” value ([4]; Hex, 298.15 K) was 84%, the “entropy share of the total free energy change of dissolution” value ([4]; Hex, 298.15 K) was 16% and the “Gibbs energy of solution ΔGsol0” value ([4]; OctOH, 298.15 K) was 12.1 kJ/mol. For the same compound, the “Gibbs energy of solution ΔGsol0” value ([4]; pH 7.4, 298.15 K) was 23.7 kJ/mol, the TΔStr0 ([5]; Hex→OctOH) was 21.4±1.9 kJꞏmol-1 and the “distribution coefficient Dx (mole fraction scale)” value ([5]; Hex→OctOH) was 993.14. The “enthalpy contribution to transfer (ΔHtr0 share)” value ([5]; Hex→OctOH) was 16.7%, the “entropy contribution to transfer (TΔStr0 share)” value ([5]; Hex→OctOH) was 83.3% and the ΔGtr0 ([5]; Hex→OctOH) was -17.1±0.3 kJꞏmol-1 and −17.1 kJꞏmol-1. For the same compound, the ΔHtr0 ([5]; Hex→OctOH) was 4.3±0.3 kJꞏmol-1, the TΔStr0 ([5]; pH 7.4→Hex) was 23.4±1.0 kJꞏmol-1 and the “enthalpy contribution to transfer (ΔHtr0 share)” value ([5]; pH 7.4→Hex) was 55.3%. For the same compound, the “entropy contribution to transfer (TΔStr0 share)” value ([5]; pH 7.4→Hex) was 44.7%, the ΔHtr0 ([5]; pH 7.4→Hex) was 28.9±0.7 kJꞏmol-1 and the TΔStr0 ([5]; pH 7.4→OctOH) was 44.4±1.3 kJꞏmol-1. For the same compound, the “distribution coefficient Dx (mole fraction scale)” value ([5]; pH 7.4→OctOH) was 103.10, the “enthalpy contribution to transfer (ΔHtr0 share)” value ([5]; pH 7.4→OctOH) was 42.6% and the “entropy contribution to transfer (TΔStr0 share)” value ([5]; pH 7.4→OctOH) was 57.4%. For the same compound, the ΔGtr0 ([5]; pH 7.4→OctOH) was -11.5±0.2 kJꞏmol-1 and −11.5 kJꞏmol-1 and the ΔHtr0 ([5]; pH 7.4→OctOH) was 32.9±0.3 kJꞏmol-1.
